For this test, the system named is H358 cells. The experiment in a line: Cell activity experiment: activity test of H358 cells (MTT, 5 days). The class given is cell-based. The settings on record: Homo sapiens, NCI-H358, 120 h, 5 days incubation, absorbance 492 nm. The protocol: Example: Cell Activity Experiment
1. Cells: H358 purchased from Shanghai EK-Bioscience Biotechnology Co., Ltd.
2. Reagents: RPMI 1640 medium, Tryple, MTT (5 mg/mL), DMSO, and DPBS.
3. Instruments: an incubator at 37° C. and 5% CO2, a UTRAO microplate reader, a biosafety cabinet, a cell counting plate, and an Optec optical microscope.
4. Experimental consumables: 96-well plate Item No.: 3599, and 96-well round-bottomed dispensing plate.
Experimental Steps of Activity Test of H358 Cells:
1. Plating: Cells in the logarithmic growth phase were digested with Tryple and terminated with a fresh medium, and the cells were counted; and the cell concentration was adjusted to 55555 cells/mL with a fresh medium, wherein 90 μL was added to each well, and those on edges were filled with sterile DPBS.
2. The plate was incubated in the incubator at 37° C. and 5% CO2 for 24 h, so that the cells cover the bottom of the well by about 50%.
3. Drug preparation for experimental group: The drug was dissolved in DMSO to prepare a 20 mmol/L stock solution; the stock solution was further diluted with DMSO to 2 mmol/L, which was serially 3-fold diluted to form an […]-concentration gradient, resulting in a 200× serial compound solution; 10 μL of the serial compound solution was taken and added to 190 μLμL of RPMI1640 medium to obtain a 10× serial compound solution; and 10 μL of the 10× compound solution was taken and added to 90 μL 96-well cell culture plate, with three replicates per grade. The concentration gradient of the compound in the 96-well cell culture plate was […], 1.524158 nM, 4.572474 nM, 13.717420 nM, 41.152260 nM, 123.456800 nM, 370.370400 nM, 1111.111000 nM, 3333.333000 nM, and 10000.000000 nM, with 100 μL per well, and the final concentration of DMSO was 0.5%.
The control group contained the same volume of solvent as the experimental group and was diluted with a complete medium, with 100 μL per well.
4. Incubation was carried out for 5 days in an incubator with 5% CO2 at 37° C.
5. After 5 days, 10 μL of an MTT solution (5 mg/mL) was added to each well, and the culture was continued for 4 h.
6. The culture was terminated, and the culture solution was carefully sucked out of the well.
7. 150 μL of dimethyl sulfoxide (DMSO) was added to each of the null wells in the experimental group and the control group; and after shaking at a medium speed for 10 s, the crystal was fully dissolved, and the optical absorbance value thereof was measured at a wavelength of 492 nm.
For `C=C(F)C(=O)N1CCN(c2nc(OC[C@@]34CCCN3C[C@H](F)C4)nc3c(F)c(-c4ccc(F)c5c4CCCC5)ncc23)C[C@@H]1CC#N` [Example 24], the IC50 (usually the concentration that gives 50% inhibition) was found to be 15 nM. In the case of `C=CC(=O)N1CC[C@@H]2[C@H]1CN2c1nc(OC[C@@H]2CCCN2C)nc2c(F)c(-c3ccc(F)c4c3CCCC4)ncc12` [Example 25] it was 10 nM; in that of `C=C(F)C(=O)N1CC[C@@H]2[C@H]1CN2c1nc(OC[C@@H]2CCCN2C)nc2c(F)c(-c3ccc(F)c4c3CCCC4)ncc12` [Example 26], 40 nM. For the compound `C=CC(=O)N1CC[C@@H]2[C@H]1CN2c1nc(OC[C@@H]2C[C@@H](F)CN2C)nc2c(F)c(-c3ccc(F)c4c3CCCC4)ncc12` [Example 27], the IC50 is 15 nM. In the case of `C=C(F)C(=O)N1CC[C@@H]2[C@H]1CN2c1nc(OC[C@@H]2C[C@@H](F)CN2C)nc2c(F)c(-c3ccc(F)c4c3CCCC4)ncc12` [Example 28], 80 nM corresponded to half-maximal inhibition (IC50). `C=CC(=O)N1CC[C@@H]2[C@H]1CN2c1nc(OCC23CCCN2CCC3)nc2c(F)c(-c3ccc(F)c4c3CCCC4)ncc12` [Example 29]: the IC50 stood at 10 nM.

In turn, `C=C(F)C(=O)N1CC[C@@H]2[C@H]1CN2c1nc(OCC23CCCN2CCC3)nc2c(F)c(-c3ccc(F)c4c3CCCC4)ncc12` [Example 30] had an IC50 of 60 nM. For the compound `C=CC(=O)N1CC[C@@H]2[C@H]1CN2c1nc(OC[C@@]23CCCN2C[C@H](F)C3)nc2c(F)c(-c3ccc(F)c4c3CCCC4)ncc12` [Example 31], the IC50 is 8 nM. For `C=C(F)C(=O)N1CC[C@@H]2[C@H]1CN2c1nc(OC[C@@]23CCCN2C[C@H](F)C3)nc2c(F)c(-c3ccc(F)c4c3CCCC4)ncc12` [Example 32], the IC50 stood at 35 nM. The compound `C=CC(=O)N1CCN(c2nc(OC[C@@H]3CCCN3C)nc3c(F)c(-c4cncc5c4CCCC5)ncc23)C[C@@H]1CC#N` [Example 33, 2-((S)-1-acryloyl-4-(8-fluoro-2-(((S)-1-methylpyrrolidin-2-yl)methoxy)-7-(5,6,7,8-tetrahydroisoquinoline-4-yl)pyridino[4,3-d]pyrimidin-4-yl)piperazin-2-yl)acetonitrile] returned an IC50 of 25 nM. `C=C(F)C(=O)N1CCN(c2nc(OC[C@@H]3CCCN3C)nc3c(F)c(-c4cncc5c4CCCC5)ncc23)C[C@@H]1CC#N` [Example 34, 2-((S)-4-(8-fluoro-2-(((S)-1-methylpyrrolidin-2-yl)methoxy)-7-(5,6,7,8-tetrahydroisoquinolin-4-yl)pyridino[4,3-d]pyrimidin-4-yl)-1-(2-fluoroacryloyl)piperazin-2-yl)acetonitrile] gave an IC50 of 80 nM. Compared with the last compound, the IC50 is about 3.2-fold higher. `C=CC(=O)N1CCN(c2nc(OC[C@@H]3C[C@@H](F)CN3C)nc3c(F)c(-c4cncc5c4CCCC5)ncc23)C[C@@H]1CC#N` [Example 35] gave an IC50 of 15 nM. Under `C=C(F)C(=O)N1CCN(c2nc(OC[C@@H]3C[C@@H](F)CN3C)nc3c(F)c(-c4cncc5c4CCCC5)ncc23)C[C@@H]1CC#N` [Example 36] stands 120 nM.

`C=CC(=O)N1CCN(c2nc(OCC34CCCN3CCC4)nc3c(F)c(-c4cncc5c4CCCC5)ncc23)C[C@@H]1CC#N` [Example 37, (S)-2-(1-acryloyl-4-(8-fluoro-2-((tetrahydro-1H-pyrrolizin-7a(5H)-yl)methoxy)-7-(5,6,7,8-tetrahydroisoquinolin-4-yl)pyridino[4,3-d]pyrimidin-4-yl)piperazin-2-yl)acetonitrile] came in with an IC50 of 15 nM.

In turn, `C=C(F)C(=O)N1CCN(c2nc(OCC34CCCN3CCC4)nc3c(F)c(-c4cncc5c4CCCC5)ncc23)C[C@@H]1CC#N` [Example 38, (S)-2-(4-(8-fluoro-2-((tetrahydro-1H-pyrrolizin-7a(5H)-yl)methoxy)-7-(5,6,7,8-tetrahydroisoquinolin-4-yl)pyridino[4,3-d]pyrimidin-4-yl)-1-(2-fluoroacryloyl)piperazin-2-yl)acetonitrile] returned an IC50 of 36 nM. Under `C=CC(=O)N1CCN(c2nc(OC[C@@]34CCCN3C[C@H](F)C4)nc3c(F)c(-c4cncc5c4CCCC5)ncc23)C[C@@H]1CC#N` [Example 39] stands 8 nM; under `C=C(F)C(=O)N1CCN(c2nc(OC[C@@]34CCCN3C[C@H](F)C4)nc3c(F)c(-c4cncc5c4CCCC5)ncc23)C[C@@H]1CC#N` [Example 40], 30 nM.

In the case of `C=CC(=O)N1CC[C@@H]2[C@H]1CN2c1nc(OC[C@@H]2CCCN2C)nc2c(F)c(-c3cncc4c3CCCC4)ncc12` [Example 41], the IC50 came to 15 nM. In the case of `C=C(F)C(=O)N1CC[C@@H]2[C@H]1CN2c1nc(OC[C@@H]2CCCN2C)nc2c(F)c(-c3cncc4c3CCCC4)ncc12` [Example 42, 2-fluoro-1-(((1R,5R)-6-(8-fluoro-2-(((S)-1-methylpyrrolidin-2-yl)methoxy)-7]-(5,6,7,8-tetrahydroisoquinolin-4-yl)pyridino[4,3-d]pyrimidin-4-yl)-2,6-diazabicyclo[3.2.0]hept-2-yl)prop-2-en-1-one] it was 35 nM; in that of `C=CC(=O)N1CC[C@@H]2[C@H]1CN2c1nc(OC[C@@H]2C[C@@H](F)CN2C)nc2c(F)c(-c3cncc4c3CCCC4)ncc12` [Example 43], 16 nM; in that of `C=C(F)C(=O)N1CC[C@@H]2[C@H]1CN2c1nc(OC[C@@H]2C[C@@H](F)CN2C)nc2c(F)c(-c3cncc4c3CCCC4)ncc12` [Example 44], 64 nM. On to `C=CC(=O)N1CC[C@@H]2[C@H]1CN2c1nc(OCC23CCCN2CCC3)nc2c(F)c(-c3cncc4c3CCCC4)ncc12` [Example 45, 1-((1R,5R)-6-(8-fluoro-2-((tetrahydro-1H-pyrrolizin-7a(5H)-yl)methoxy)-7-(5,6,7,8-tetrahydroisoquinoline-4-yl)pyridino[4,3-d]pyrimidin-4-yl)-2,6-diazabicyclo[3.2.0]hept-2-yl)prop-2-en-1-one], for which half-maximal inhibition (IC50) was put at 10 nM. In turn, `C=C(F)C(=O)N1CC[C@@H]2[C@H]1CN2c1nc(OCC23CCCN2CCC3)nc2c(F)c(-c3cncc4c3CCCC4)ncc12` [Example 46, 2-fluoro-1-(((1R,5R)-6-(8-fluoro-2-((tetrahydro-1H-pyrrolizin-7a(5H)-yl)methoxy))-7-(5,6,7,8-tetrahydroisoquinolin-4-yl)pyridino[4,3-d]pyrimidin-4-yl)-2,6-diazabicyclo[3.2.0]hept-2-yl)prop-2-en-1-one] returned an IC50 of 30 nM.

Regarding `C=CC(=O)N1CC[C@@H]2[C@H]1CN2c1nc(OC[C@@]23CCCN2C[C@H](F)C3)nc2c(F)c(-c3cncc4c3CCCC4)ncc12` [Example 47], 6.5 nM corresponded to half-maximal inhibition (IC50). In the case of `C=C(F)C(=O)N1CC[C@@H]2[C@H]1CN2c1nc(OC[C@@]23CCCN2C[C@H](F)C3)nc2c(F)c(-c3cncc4c3CCCC4)ncc12` [Example 48] it was 20 nM. In the case of `C=CC(=O)N1CCN(c2nc(OC[C@@H]3CCCN3C)nc3c(F)c(-c4cccc5c4SCCC5)ncc23)C[C@@H]1CC#N` [Example 49, 2-((S)-1-acryloyl-4-(8-fluoro-2-(((S)-1-methylpyrrolidin-2-yl)methoxy)-7-(thiochroman-8-yl)pyridino[4,3-d]pyrimidin-4-yl)piperazin-2-yl)acetonitrile] it was 57 nM; in that of `C=CC(=O)N1CCN(c2nc(OC[C@@H]3CCCN3C)nc3c(F)c(-c4cccc5c4CCOC5)ncc23)C[C@@H]1CC#N` [Example 50, 2-((S)-1-acryloyl-4-(8-fluoro-7-(isochroman-5-yl)-2-(((S)-1-methylpyrrolidin-2-yl)methoxy)pyridino[4,3-d]pyrimidin-4-yl)piperazin-2-yl)acetonitrile], 140 nM; in that of `C=CC(=O)N1CCN(c2nc(OC[C@@H]3CCCN3C)nc3c(F)c(-c4cccc5ccsc45)ncc23)C[C@@H]1CC#N` [Example 51, 2-((S)-1-acryloyl-4-(7-(benzo[b]thien-7-yl)-8-fluoro-2-(((S)-1-methylpyrrolidin-2-yl)methoxy)pyridino[4,3-d]pyrimidin-4-yl)piperazin-2-yl)acetonitrile], 148 nM. `C=CC(=O)N1CCN(c2nc(OC[C@@H]3CCCN3C)nc3c(F)c(-c4cccc5c4C4CC4C5)ncc23)C[C@@H]1CC#N` (stereo partly drawn) [Example 52, 2-((2S)-1-acryloyl-4-(8-fluoro-2-(((S)-1-methylpyrrolidin-2-yl)methoxy)-7-(1,1a,6,6a-tetrahydrocyclopropa[a]inden-2-yl)pyridino[4,3-d]pyrimidin-4-yl)piperazin-2-yl)acetonitrile] showed an IC50 of 0.22 nM.
